Laboratory results taken from article PMC6522510 (Nature Communications, 2019).

How the values were obtained:
MOLM-13 [1] = experiment: Secondary dose-response HTS, Cell Titer Glo; type: cell-based, human; settings: Homo sapiens; secondary high-throughput screen; MOLM-13; read-out: average effective concentration, MOLM-13
U937 [2] = experiment: Secondary dose-response HTS, Cell Titer Glo; type: cell-based, human; settings: Homo sapiens
MV4-11 [3] = experiment: cells; design: species or system AML cell lines (8); Secondary HTS, 10-point dose-response in triplicate, Cell Titer Glo viability, four-parameter fit EC50; settings: Homo sapiens, MV4-11, 72 h, read-out: MV4-11
CHRF288-11 = experiment: cells; design: species or system AML cell lines (8); Secondary HTS, 10-point dose-response in triplicate, Cell Titer Glo viability, four-parameter fit EC50; settings: 72 h, read-out: CHRF288-11
CMS = experiment: cells; design: species or system AML cell lines (8); Secondary HTS, 10-point dose-response in triplicate, Cell Titer Glo viability, four-parameter fit EC50; settings: 72 h, read-out: CMS
M07e = experiment: cells; design: species or system AML cell lines (8); Secondary HTS, 10-point dose-response in triplicate, Cell Titer Glo viability, four-parameter fit EC50; settings: M-07e, 72 h, read-out: M07e
ML-2 = experiment: cells; design: species or system AML cell lines (8); Secondary HTS, 10-point dose-response in triplicate, Cell Titer Glo viability, four-parameter fit EC50; settings: Homo sapiens, ML-2, 72 h, read-out: ML-2
CMK [4] = experiment: Secondary dose-response HTS, Cell Titer Glo; type: cell-based, human; settings: Homo sapiens, CMK, read-out: average effective concentration, CMK
MOLM-13 [5] = experiment: cells; design: species or system AML cell lines (8); Secondary HTS, 10-point dose-response in triplicate, Cell Titer Glo viability, four-parameter fit EC50; settings: Homo sapiens, MOLM-13, 72 h, read-out: MOLM-13
U937 [6] = experiment: cells; design: species or system AML cell lines (8); Secondary HTS, 10-point dose-response in triplicate, Cell Titer Glo viability, four-parameter fit EC50; settings: Homo sapiens, U-937, 72 h, read-out: U937
MV4-11 [7] = experiment: Secondary dose-response HTS, Cell Titer Glo; type: cell-based, human; settings: Homo sapiens; secondary high-throughput screen; MV4-11; read-out: average effective concentration, MV4-11
CMK [8] = experiment: cells; design: species or system AML cell lines (8); Secondary HTS, 10-point dose-response in triplicate, Cell Titer Glo viability, four-parameter fit EC50; settings: Homo sapiens, CMK, 72 h, read-out: CMK
[9] = U-937, secondary high-throughput screen, U937, read-out: average effective concentration, U937

SMILES	EC50 (MOLM-13 [1]) [µM]	EC50 (MV4-11 [3]) [µM]	EC50 (MOLM-13 [5]) [µM]	EC50 (U937 [6]) [µM]	EC50 (MV4-11 [7]) [µM]	EC50 (U937 [2]; U-937, read-out: average effective concentration, U937) [µM]	EC50 (U937 [2]; [9]) [µM]	EC50 (CHRF288-11) [µM]	EC50 (CMS) [µM]	EC50 (M07e) [µM]	EC50 (ML-2) [µM]	EC50 (CMK [4]; secondary high-throughput screen) [µM]	EC50 (CMK [8]) [µM]	EC50 (CMK [4]) [µM]
O=C(O)CNC(=O)C(=O)O [N-OXALYLGLYCINE]	2.3	> 10	–	–	–	–	3.3	> 10	> 10	> 10	> 10	–	–	–
Cc1ncc(CNC(=O)N(CCCl)N=O)c(N)n1 [NIMUSTINE]	–	> 10	> 10	> 10	–	–	–	> 10	> 10	> 10	> 10	10	–	–
CC(=O)c1c(C)c2cnc(Nc3ccc(N4CCNCC4)cn3)nc2n(C2CCCC2)c1=O [Palbociclib]	–	> 10	> 10	–	–	–	–	> 10	–	> 10	> 10	–	–	–
CC(C(=O)Nc1cccc(/N=C/c2c(O)ccc3ccccc23)c1)c1ccccc1 (centres unmarked) [SALERMIDE]	7	> 10	–	–	–	–	6.6	> 10	> 10	> 10	> 10	–	> 10	–
Nc1ncnc2c1ncn2[C@@H]1C=C(CO)[C@@H](O)[C@H]1O [SJ000784248, NEPLANOCIN A]	–	> 10	0.36	1.1	–	–	–	6.5	> 10	> 10	5.8	–	–	–
CN(C)C1CCN(C(=O)c2ccc(NC(=O)Nc3ccc(-c4nc(N5CCOCC5)nc(N5CCOCC5)n4)cc3)cc2)CC1 [SJ000784327, PF-05212384]	–	–	–	–	–	–	–	> 10	> 10	> 10	> 10	–	–	–
N[C@@H]1C[C@H]1c1cc(F)cc(F)c1OCc1ccccc1 [SJ000785902, S2101]	–	> 10	> 10	> 10	–	–	–	> 10	> 10	> 10	> 10	–	–	–
Nc1nccc2c1ncn2[C@@H]1C=C(CO)[C@@H](O)[C@H]1O [SJ000785904, 3-DEAZANEPLANOCIN]	–	> 10	0.19	> 10	–	–	–	1.8	> 10	0.001	> 10	–	–	–
Cn1cncc1[C@@](N)(c1ccc(Cl)cc1)c1ccc2c(c1)c(-c1cccc(Cl)c1)cc(=O)n2C [TIPIFARNIB]	–	> 10	> 10	–	–	0.54	–	> 10	> 10	> 10	> 10	–	–	1.4

More lines, main results first:

EC50 (MOLM-13 [1]) [µM]	EC50 (MV4-11 [3]) [µM]	EC50 (MOLM-13 [5]) [µM]	EC50 (U937 [6]) [µM]	EC50 (MV4-11 [7]) [µM]	EC50 (U937 [2]; U-937, read-out: average effective concentration, U937) [µM]	SMILES	EC50 (U937 [2]; [9]) [µM]	EC50 (CHRF288-11) [µM]	EC50 (CMS) [µM]	EC50 (M07e) [µM]	EC50 (ML-2) [µM]	EC50 (CMK [4]; secondary high-throughput screen) [µM]	EC50 (CMK [8]) [µM]	EC50 (CMK [4]) [µM]
4.5	–	–	> 10	> 10	–	CCc1nc(N)nc(N)c1-c1ccc(Cl)cc1 [PYRIMETHAMINE]	–	> 10	> 10	> 10	> 10	–	> 10	–
–	> 10	> 10	> 10	–	–	CS(=O)(=O)N1CCN(Cc2cc3nc(-c4cccc5[nH]ncc45)nc(N4CCOCC4)c3s2)CC1 [Pictilisib]	–	> 10	> 10	> 10	> 10	–	–	–
–	–	–	0.0052	–	–	Cn1cc(CNCC2CCN(c3ncc(C(=O)NO)cn3)CC2)c2ccccc21 [Quisinostat]	–	–	–	0.0042	0.00387	–	–	–
0.077	> 10	–	> 10	–	–	CCCC(CCC)C(=O)O [VALPROATE SODIUM]	–	> 10	> 10	> 10	> 10	–	> 10	–
10	> 10	–	> 10	–	–	COc1cc2c(Nc3ccc(Br)cc3F)ncnc2cc1OCC1CCN(C)CC1 [VANDETANIB]	–	> 10	> 10	> 10	> 10	–	–	5.8
